Key:
Format in all cases: cell-based, human
TRPC3 = tested on: T1, TRPC3; test: Microfluorometric single-cell [Ca2+]i analysis, fura-2-loaded HEK cells stably expressing TRPC3; conditions: 50 µM
T1 construct: expressed in transfected cells
Protocol: The microfluorometric single-cell [Ca^2+]i analysis was performed on an inverted epifluorescence microscope (Carl Zeiss, Jena, Germany) and calibrated as described. Cells were grown on 25 mm coverslips and loaded with 4 µM fura-2/AM (AAT Bioquest, Sunnyvale, CA, U.S.A.) in HBS containing 0.2% BSA for 30 min at 37 °C. After gently rinsing the coverslips with HBS, coverslips were mounted in a bath chamber and superfused with HBS containing 0.035% BSA.
Figure 2 Microfluorometric single-cell analysis of artemisinin-induced increases in [Ca^2+]i in fura-2-loaded HEK cells stably expressing TRPC3 (A), TRPC6 (B), or TRPC7 (C). […] Experiments were performed either in standard bath solution, containing 1 mM Ca^2+ (black lines and bars), or in a nominally Ca^2+-free HBS buffer, supplemented with 200 µM EGTA (grey lines and bars). Time courses of averaged responses (left), and statistical analysis of 6–11 independent imaging experiments with means and S.D. (right) are shown. Significant differences (p < 0.05, Student´s t-test with paired data: #, with unpaired data: *) are marked for the indicated comparisons; n.s.: difference is statistically not significant.

TRPC6 = tested on: T2, TRPC6; test: Whole-cell patch-clamp recordings in HEK TRPC6-YFP cells; conditions: 100 µM artemisinin
T2 construct: expressed in transfected cells
Protocol: (§1) The recordings of TRPC3, TRPC6, or TRPC7 membrane currents in HEK293 or PC12 cells were realized by using a Multiclamp 700B amplifier with a Digidata 1440A digitizer controlled by the PClamp 10 software (all Molecular Devices, Sunnyvale, CA, U.S.A.). Recordings were obtained at room temperature either in the whole-cell or in an outside-out configuration as indicated. Cells were seeded as described above, but at lower density, mounted in a chamber (Warner Instruments, Hamden, CT; U.S.A.), placed onto the stage of an inverted microscope, and perfused with required solution. The standard extracellular solution contained 140 mM NaCl, 5 mM CsCl, 2 mM MgCl2, 1 mM CaCl2, 10 mM HEPES, and 0.035% BSA adjusted to pH 7.4 with NaOH. The composition of standard intracellular solution was 140 mM CsCl, 1 mM MgCl2, 5 mM EGTA, and 10 mM HEPES adjusted to pH 7.25 with CsOH; the osmolarity was 295 mOsm l^−1. In outside-out measurements, the pipette solution contained 5 mM EGTA and 1.1 mM CaCl2 to achieve a calculated free Ca^2+ concentration of 100 nM.
(§2) Patch pipettes were pulled from borosilicate glass capillaries BG150F-8P (Science Products, Hofheim, Germany) with a PIP6 pipette puller (HEKA Elektronik, Lambrecht, Germany). […] In all whole-cell measurements, the series resistance was lower than 13 MΩ, and compensated by 70%. […]

TRPC7 = tested on: T3, TRPC7; test: Whole-cell patch-clamp recordings in HEK TRPC7-YFP cells; conditions: 100 µM artemisinin
T3 construct: expressed in transfected cells
Protocol: as §1, §2

## C[C@@H]1CC[C@H]2[C@@H](C)C(=O)O[C@@H]3O[C@@]4(C)CC[C@@H]1[C@]32OO4 [artemisinin]
TRPC3; nominally Ca2+-free HBS with 200 µM EGTA
  [Ca2+]i signal in TRPC3-expressing cells in Ca2+-free bath: abolished
TRPC3; standard bath 1 mM Ca2+
  [Ca2+]i response in TRPC3-overexpressing HEK cells: confirmed the responses
TRPC6
  ionic currents in TRPC6-expressing HEK cells: remained unaffected
TRPC7
  ionic currents in TRPC7-expressing HEK cells: only weakly enhanced

— PMC7016953 (Cells, 2020)
